Measurements taken from patent US20230303483A1, “USE OF STROBILURIN TYPE COMPOUNDS FOR COMBATING PHYTOPATHOGENIC FUNGI CONTAINING AN AMINO ACID SUBSTITUTION F129L IN THE MITOCHONDRIAL CYTOCHROME B PROTEIN CONFERRING RESISTANCE TO QO […]” (BASF SE, priority 2020, published 2023).

Columns and labels:
[1] = test system: Phakopsora pachyrhizi (strain containing the amino acid substitution F129L in the mitochondrial cytochrome b protein); assay: Use example 2: protective control of soybean rust on soybeans (PHAKPA P6), inoculation six days after spraying; assay type: in vivo; details: % diseased leaf area on soybean, 16 ppm spray, inoculation six days after treatment, untreated controls usually >85 %
Procedure: (§1) The compound was dissolved in a mixture of acetone and/or dimethylsulfoxide and the wetting agent/emulsifier Wettol, which is based on ethoxylated alkylphenoles, in a ratio (volume) solvent-emulsifier of 99 to 1 to give a total volume of 5 ml. Subsequently, water was added to total volume of 100 ml. This stock solution was then diluted with the described solvent-emulsifier-water mixture to the final concentration given in the table below.
Use example 2. Protective control of soybean rust on soybeans caused by Phakopsora pachyrhizi (PHAKPA P6)
(§2) Leaves of potted soybean seedlings were sprayed to run-off with the previously described spray solution, containing the concentration of active ingredient as described below. The plants were allowed to air-dry. The trial plants were cultivated for six days in a greenhouse chamber at 23-27° C. and a relative humidity between 60 and 80 %. Then the plants were inoculated with spores of Phakopsora pachyrhizi. The strain used contains the amino acid substitution F129L in the mitochondrial cytochrome b protein conferring resistance to Qo inhibitors. To ensure the success the artificial inoculation, the plants were transferred to a humid chamber with a relative humidity of about 95 % and 23 to 27° C. for 24 hr. The trial plants were cultivated for up to 14 days in a greenhouse chamber at 23 to 27° C. and a relative humidity between 60 and 80 %. The extent of fungal attack on the leaves was visually assessed as % diseased leaf area, the disease level of untreated controls was usually higher than 85 %.
(§3) All test results below are given for the control of phytopathogenic fungi containing the amino acid substitution F129L in the mitochondrial cytochrome b protein conferring resistance to Qo inhibitors.

[2] = test system: Phakopsora pachyrhizi (strain containing the amino acid substitution F129L in the mitochondrial cytochrome b protein); assay: Use example 1: protective control of soybean rust on soybeans (PHAKPA P2), inoculation 2 days after spraying; assay type: in vivo; details: % diseased leaf area on soybean, 16 ppm spray, inoculation 2 days after treatment, untreated controls usually >85 %
Procedure: as §1
Use example 1. Protective control of soybean rust on soybeans caused by Phakopsora pachyrhizi (PHAKPA P2)
as §2, with “active ingredient or their mixture as described” for “active ingredient as described”, “cultivated for 2 days in” for “cultivated for six days in”, “% and 20 to 24°” for “% and 23 to 27°”, “20 to 24° C. for” for “23 to 27° C. for”
as §3

Structure (SMILES)	PHAKPA Disease level (%) P6 at 16 ppm [1]	PHAKPA Disease level (%) P2 at 16 ppm [2]
CNC(=O)/C(=N/OC)c1cccc(C)c1CO/N=C(\C)C#Cc1ccc(OC(F)(F)F)cc1 [Example 21, (2E)-2-Methoxyimino-N-methyl-2-[3-methyl-2-[[(E)-[1-methyl-3-[4-(trifluoromethoxy)phenyl]prop-2-ynylidene]amino]oxymethyl]phenyl]acetamide]	33%	25%
CO/N=C(/C(=O)OC)c1cccc(C)c1CO/N=C(\C)C#Cc1ccc(OC(F)(F)F)cc1 [Example 22, methyl (2E)-2-methoxyimino-2-[3-methyl-2-[[(E)-[1-methyl-3-[4-(trifluoromethoxy)-phenyl]prop-2-ynylidene]amino]oxymethyl]phenyl]acetate]	97%	93%
CO/N=C(/C(=O)OC)c1cccc(C)c1CO/N=C(\C)C#Cc1ccccc1C [Example 23]	0%	0%
CNC(=O)/C(=N/OC)c1cccc(C)c1CO/N=C(\C)C#Cc1ccccc1OC(F)(F)F [Example 25]	0%	0%
CO/N=C(/C(=O)OC)c1cccc(C)c1CO/N=C(\C)C#Cc1ccccc1OC(F)(F)F [Example 26]	6%	2%
CNC(=O)/C(=N/OC)c1cccc(C)c1CO/N=C(\C)C#Cc1cccc(OC(F)(F)F)c1 [Example 27]	0%	0%
CO/N=C(/C(=O)OC)c1cccc(C)c1CO/N=C(\C)C#Cc1cccc(OC(F)(F)F)c1 [Example 28]	0%	0%
CNC(=O)/C(=N/OC)c1cccc(C)c1CO/N=C(\C)C#Cc1cccc(Br)c1 [Example 29]	0%	1%
CO/N=C(/C(=O)OC)c1cccc(C)c1CO/N=C(\C)C#Cc1cccc(Br)c1 [Example 30]	0%	0%
CNC(=O)/C(=N/OC)c1cccc(C)c1CO/N=C(\C)C#Cc1ccc(Cl)cc1 [Example 31]	5%	0%
CO/N=C(/C(=O)OC)c1cccc(C)c1CO/N=C(\C)C#Cc1ccc(Cl)cc1 [Example 32]	35%	12%
CNC(=O)/C(=N/OC)c1cccc(C)c1CO/N=C(\C)C#Cc1ccc(F)cc1 [Example 33]	0%	0%
CO/N=C(/C(=O)OC)c1cccc(C)c1CO/N=C(\C)C#Cc1ccc(F)cc1 [Example 34]	0%	0%
CO/N=C(/C(=O)OC)c1ccccc1CO/N=C(\C)C#Cc1cccc(F)c1 [Example 35]	25%	32%
CO/N=C(/C(=O)OC)c1cccc(C)c1CO/N=C(\C)C#Cc1cccc(F)c1 [Example 36]	9%	4%
CNC(=O)/C(=N/OC)c1ccccc1CO/N=C(\C)C#Cc1cccc(F)c1 [Example 37]	8%	6%
CNC(=O)/C(=N/OC)c1cccc(C)c1CO/N=C(\C)C#Cc1cccc(F)c1 [Example 38]	1%	0%
CO/N=C(/C(=O)OC)c1cccc(C)c1CO/N=C(\C)C#Cc1cccc(C(F)(F)F)c1 [Example 39]	1%	2%
CNC(=O)/C(=N/OC)c1cccc(C)c1CO/N=C(\C)C#Cc1cccc(C(F)(F)F)c1 [Example 40]	0%	0%

Structure (SMILES)	PHAKPA Disease level (%) P6 at 16 ppm [1]	PHAKPA Disease level (%) P2 at 16 ppm [2]
CO/N=C(/C(=O)OC)c1ccccc1CO/N=C(\C)C#Cc1cccc(C(F)(F)F)c1 [Example 41]	67%	50%
CO/N=C(/C(=O)OC)c1cccc(C)c1CO/N=C(\C)C#Cc1cccc(C)c1 [Example 42]	6%	3%
CO/N=C(/C(=O)OC)c1ccccc1CO/N=C(\C)C#Cc1cccc(C)c1 [Example 43]	27%	40%
CNC(=O)/C(=N/OC)c1ccccc1CO/N=C(\C)C#Cc1cccc(C(F)(F)F)c1 [Example 44]	5%	1%
CO/N=C(/C(=O)OC)c1cccc(C)c1CO/N=C(\C)C#Cc1ccccc1Br [Example 45]	22%	25%
CO/N=C(/C(=O)OC)c1ccccc1CO/N=C(\C)C#Cc1ccccc1Br [Example 46]	37%	47%
CNC(=O)/C(=N/OC)c1cccc(C)c1CO/N=C(\C)C#Cc1ccccc1Br [Example 47]	0%	0%
CNC(=O)/C(=N/OC)c1ccccc1CO/N=C(\C)C#Cc1ccccc1Br [Example 48]	2%	0%
CNC(=O)/C(=N/OC)c1cccc(C)c1CO/N=C(\C)C#Cc1ccccc1C [Example 49]	0%	0%
CNC(=O)/C(=N/OC)c1ccccc1CO/N=C(\C)C#Cc1ccccc1C [Example 51]	0%	0%
CO/N=C(/C(=O)OC)c1ccccc1CO/N=C(\C)C#Cc1cccc(OC(F)(F)F)c1 [Example 52]	33%	13%
CNC(=O)/C(=N/OC)c1ccccc1CO/N=C(\C)C#Cc1cccc(OC(F)(F)F)c1 [Example 53]	0%	0%
CO/N=C(/C(=O)OC)c1ccccc1CO/N=C(\C)C#Cc1ccc(Br)cc1 [Example 54]	25%	22%
CNC(=O)/C(=N/OC)c1ccccc1CO/N=C(\C)C#Cc1ccc(Br)cc1 [Example 55]	40%	23%
CO/N=C(/C(=O)OC)c1cccc(C)c1CO/N=C(\C)C#Cc1ccc(Br)cc1 [Example 56]	37%	18%
CNC(=O)/C(=N/OC)c1cccc(C)c1CO/N=C(\C)C#Cc1cccc(C)c1 [Example 57]	0%	0%
CNC(=O)/C(=N/OC)c1ccccc1CO/N=C(\C)C#Cc1cccc(C)c1 [Example 58]	4%	2%
CNC(=O)/C(=N/OC)c1cccc(C)c1CO/N=C(\C)C#Cc1ccc(Br)cc1 [Example 59]	28%	13%
CO/N=C(/C(=O)OC)c1ccccc1CO/N=C(\C)C#Cc1ccccc1F [Example 60]	17%	40%
